Source: ChEMBL document CHEMBL1201862, “PubChem BioAssay data set” (2004)
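Following 48 hours of exposure in 96-well plates, responses at five concentrations were used to interpolate endpoints linearly. GI50: concentration for 50% inhibition of growth.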 Activity calls are given as the source filed them. No stated cut-off is given here; in the data, active = GI50 up to about 1.1 µM and inactive = higher.

Columns and labels:
Assay in all cases: DTP human tumour cell line panel, 48 h
[1] = tested on: UACC-62
[2] = tested on: TK-10
[3] = tested on: MDA-MB-231
[4] = tested on: COLO 205
[5] = tested on: CAKI-1
[6] = tested on: OVCAR-4
[7] = tested on: SNB-75
[8] = tested on: OVCAR-5
[9] = tested on: HCT-116
[10] = tested on: NCI-H522
[11] = tested on: UO-31
[12] = tested on: NCI-H460
[13] = tested on: U-251
[14] = tested on: PC-3
[15] = tested on: KM12
[16] = tested on: MCF7
[17] = tested on: CCRF-CEM
[18] = tested on: MOLT-4
[19] = tested on: LOX IMVI
[20] = tested on: RXF 393

Row | SMILES | GI50 [1] | GI50 [2] | GI50 [3] | GI50 [4] | GI50 [5] | GI50 [6] | GI50 [7] | GI50 [8] | GI50 [9] | GI50 [10] | GI50 [11] | GI50 [12] | GI50 [13] | GI50 [14] | GI50 [15] | GI50 [16] | GI50 [17] | GI50 [18] | GI50 [19] | GI50 [20]
1 | C=CC[C@@]1(C(=O)OC)[C@H](Sc2ccccc2)C1(C)C | 45.5 µM (inactive) | > 100 µM (inactive) | 69 µM (inactive) | 33.3 µM (inactive) | 74.8 µM (inactive) | 43.7 µM (inactive) | 21.8 µM (inactive) | 80.9 µM (inactive) | 23.6 µM (inactive) | 30.5 µM (inactive) | 83 µM (inactive) | 66.5 µM (inactive) | 49.2 µM (inactive) | 47.3 µM (inactive) | 35.1 µM (inactive) | 25.9 µM (inactive) | 28.8 µM (inactive) | 14.4 µM (inactive) | – | –
2 | Cc1cc(O)c2c(c1O)C(=O)C1=C(C2=O)C(=O)C2C(O)C1C1C(O)CC(O)=C3C(=O)c4c(O)cc(C)c(O)c4C(=O)C321 (stereo unspecified) | 1.12 µM (active) | 3.14 µM (inactive) | 2.64 µM (inactive) | 0.834 µM (active) | 1.75 µM (inactive) | 6.04 µM (inactive) | 1.03 µM (active) | 3.62 µM (inactive) | 0.541 µM (active) | – | – | 1.46 µM (inactive) | 0.658 µM (active) | 0.628 µM (active) | 0.697 µM (active) | 2.62 µM (inactive) | 0.577 µM (active) | 1.52 µM (inactive) | 1.57 µM (inactive) | –
3 | CSc1ccc(Nc2cc(=O)[nH]c(=O)[nH]2)cc1 | > 100 µM (inactive) | – | > 100 µM (inactive) | > 100 µM (inactive) | > 100 µM (inactive) | > 100 µM (inactive) | – | > 100 µM (inactive) | > 100 µM (inactive) | > 100 µM (inactive) | > 100 µM (inactive) | > 100 µM (inactive) | > 100 µM (inactive) | > 100 µM (inactive) | – | > 100 µM (inactive) | > 100 µM (inactive) | > 100 µM (inactive) | > 100 µM (inactive) | –
4 | COc1ccc(C2C3CCc4ccccc4C3=NN2S(=O)(=O)c2ccc(Cl)cc2)cc1 (stereo unspecified) | 13.1 µM (inactive) | 32.4 µM (inactive) | 17.1 µM (inactive) | 6.01 µM (inactive) | 16.2 µM (inactive) | 30.3 µM (inactive) | – | 47.6 µM (inactive) | 18.3 µM (inactive) | 9.14 µM (inactive) | 22.6 µM (inactive) | 15.8 µM (inactive) | 17.6 µM (inactive) | 17.1 µM (inactive) | 7.08 µM (inactive) | 4.13 µM (inactive) | 17.9 µM (inactive) | 13.1 µM (inactive) | 22.8 µM (inactive) | 12.1 µM (inactive)
5 | C[C@@H]1OC(=O)C[C@H]2CC(=O)N(CCC3CN(S(=O)(=O)C(F)(F)F)c4ccccc43)C[C@@H]21 (stereo partly specified) | > 100 µM (inactive) | – | > 100 µM (inactive) | > 100 µM (inactive) | > 100 µM (inactive) | > 100 µM (inactive) | – | > 100 µM (inactive) | > 100 µM (inactive) | > 100 µM (inactive) | > 100 µM (inactive) | > 100 µM (inactive) | > 100 µM (inactive) | > 100 µM (inactive) | > 100 µM (inactive) | > 100 µM (inactive) | > 100 µM (inactive) | > 100 µM (inactive) | – | > 100 µM (inactive)
6 | CCOC(=O)CN1C(=O)c2c(NC(=O)C(=O)O)cccc2S1(=O)=O | > 100 µM (inactive) | > 100 µM (inactive) | > 100 µM (inactive) | > 100 µM (inactive) | > 100 µM (inactive) | > 100 µM (inactive) | – | > 100 µM (inactive) | > 100 µM (inactive) | > 100 µM (inactive) | > 100 µM (inactive) | > 100 µM (inactive) | > 100 µM (inactive) | > 100 µM (inactive) | > 100 µM (inactive) | > 100 µM (inactive) | > 100 µM (inactive) | > 100 µM (inactive) | > 100 µM (inactive) | > 100 µM (inactive)
7 | CNc1ccc2nc(-c3ccc(OC(=O)N(C)C)cc3)cn2c1 | 18.8 µM (inactive) | 17.9 µM (inactive) | 17.1 µM (inactive) | 17.1 µM (inactive) | 21.4 µM (inactive) | 17.5 µM (inactive) | – | 22.9 µM (inactive) | 18.3 µM (inactive) | 13.7 µM (inactive) | 21.1 µM (inactive) | 17.5 µM (inactive) | 15.5 µM (inactive) | 16 µM (inactive) | 17.1 µM (inactive) | 20.7 µM (inactive) | 12.6 µM (inactive) | 17.8 µM (inactive) | 17.7 µM (inactive) | 13.3 µM (inactive)
8 | C=C1CN=C(Nc2ccc(Cl)cc2)S1 | – | > 100 µM (inactive) | > 100 µM (inactive) | > 100 µM (inactive) | > 10 µM (inactive) | > 100 µM (inactive) | > 100 µM (inactive) | > 100 µM (inactive) | > 100 µM (inactive) | – | > 100 µM (inactive) | > 100 µM (inactive) | 93.3 µM (inactive) | > 100 µM (inactive) | 66.7 µM (inactive) | 45.6 µM (inactive) | 71 µM (inactive) | > 10 µM (inactive) | 62.1 µM (inactive) | –
9 | O=C1c2ccccc2C(=O)c2nn(N=P(CP(=Nn3nc4c(n3)C(=O)c3ccccc3C4=O)(c3ccccc3)c3ccccc3)(c3ccccc3)c3ccccc3)nc21 | > 100 µM (inactive) | > 100 µM (inactive) | > 100 µM (inactive) | > 100 µM (inactive) | > 100 µM (inactive) | > 100 µM (inactive) | – | > 100 µM (inactive) | > 100 µM (inactive) | > 100 µM (inactive) | – | > 100 µM (inactive) | > 100 µM (inactive) | > 100 µM (inactive) | > 100 µM (inactive) | > 100 µM (inactive) | > 100 µM (inactive) | > 100 µM (inactive) | > 100 µM (inactive) | > 100 µM (inactive)
10 | CSc1c(C#N)c2n(c3ccccc13)c1ccccc1[n+]2C | 16.9 µM (inactive) | 21.1 µM (inactive) | 20.7 µM (inactive) | 15 µM (inactive) | 21.3 µM (inactive) | 59.3 µM (inactive) | 37.2 µM (inactive) | 31.4 µM (inactive) | 6.4 µM (inactive) | 12.3 µM (inactive) | 18.5 µM (inactive) | 26.4 µM (inactive) | 24.6 µM (inactive) | 26.7 µM (inactive) | 28.5 µM (inactive) | 35.6 µM (inactive) | 16 µM (inactive) | 12.9 µM (inactive) | 33.1 µM (inactive) | –
11 | COCC(=O)[C@]1(O)Cc2c(O)c3c(c(O)c2[C@@H](OC2CC(N)C(O)C(C)O2)C1)C(=O)c1c(OC)cccc1C3=O (stereo partly specified) | 0.0545 µM (active) | 0.431 µM (active) | 0.296 µM (active) | 0.168 µM (active) | 0.0628 µM (active) | 0.0826 µM (active) | 0.0343 µM (active) | 0.22 µM (active) | 0.0493 µM (active) | 0.0255 µM (active) | 0.0883 µM (active) | 0.0235 µM (active) | 0.0836 µM (active) | 0.0791 µM (active) | 0.0564 µM (active) | – | 0.0153 µM (active) | 0.014 µM (active) | 0.0191 µM (active) | 0.0834 µM (active)
12 | O=C1OC(=O)C2=C1C(c1cccs1)C=C(c1cccnc1)N2c1ccncc1 (stereo unspecified) | 19.9 µM (inactive) | 17 µM (inactive) | 19.9 µM (inactive) | 17.5 µM (inactive) | 15.1 µM (inactive) | 20 µM (inactive) | 15.2 µM (inactive) | 12.2 µM (inactive) | 14.3 µM (inactive) | 13.8 µM (inactive) | 15.6 µM (inactive) | 17.3 µM (inactive) | 16.9 µM (inactive) | 12.2 µM (inactive) | 13.4 µM (inactive) | – | 20.1 µM (inactive) | 23.1 µM (inactive) | 13.2 µM (inactive) | 16.2 µM (inactive)
13 | NC(=O)c1c(NC=O)ncn1C1OCC(O)C(O)C1O (stereo unspecified) | > 100 µM (inactive) | > 100 µM (inactive) | > 100 µM (inactive) | > 100 µM (inactive) | > 100 µM (inactive) | > 100 µM (inactive) | > 100 µM (inactive) | > 100 µM (inactive) | > 100 µM (inactive) | > 100 µM (inactive) | > 100 µM (inactive) | > 100 µM (inactive) | > 100 µM (inactive) | > 100 µM (inactive) | > 100 µM (inactive) | – | > 100 µM (inactive) | > 100 µM (inactive) | > 100 µM (inactive) | > 100 µM (inactive)
14 | C[B@@-]1(c2ccc(C(F)(F)F)cc2)N[C@@H](Cc2ccccc2)C(=O)O1 | > 100 µM (inactive) | > 100 µM (inactive) | > 100 µM (inactive) | > 100 µM (inactive) | – | > 100 µM (inactive) | 31.6 µM (inactive) | > 100 µM (inactive) | > 100 µM (inactive) | – | 88.1 µM (inactive) | > 100 µM (inactive) | > 100 µM (inactive) | > 100 µM (inactive) | – | > 100 µM (inactive) | > 100 µM (inactive) | > 100 µM (inactive) | > 100 µM (inactive) | –
15 | COc1ccc2oc(S(=O)(=O)N3CC(CCl)c4ccc(N)cc43)cc2c1 (stereo unspecified) | 0.0246 µM (active) | 46.8 µM (inactive) | 2.01 µM (inactive) | 2.11 µM (inactive) | 0.0366 µM (active) | 9.77 µM (inactive) | < 0.0215 µM (active) | > 19.3 µM (inactive) | 0.0419 µM (active) | 0.0184 µM (active) | 1.93 µM (inactive) | 0.0255 µM (active) | 0.0429 µM (active) | 0.0299 µM (active) | 0.0228 µM (active) | 0.0253 µM (active) | 0.0385 µM (active) | 0.0652 µM (active) | 0.0471 µM (active) | –
